Values quoted from earlier work in PMC8288134, “Synthesis, potential antitumor activity, cell cycle analysis, and multitarget mechanisms of novel hydrazones incorporating a 4-methylsulfonylbenzene scaffold: a molecular docking study” (Journal of Enzyme Inhibition and Medicinal Chemistry, 2021).

Assays:
A549/ATCC = tested on: A549/ATCC; set-up: method as in https://dtp.cancer.gov/dtpstandard/dwindex/index.jsp; conditions: reference drugs, ref https://dtp.cancer.gov/dtpstandard/dwindex/index.jsp; cited from earlier work
SK-OV-3 = tested on: SK-OV-3; set-up: method as in https://dtp.cancer.gov/dtpstandard/dwindex/index.jsp; conditions: reference drugs, ref https://dtp.cancer.gov/dtpstandard/dwindex/index.jsp; cited from earlier work
CCRF-CEM = tested on: CCRF-CEM; set-up: method as in https://dtp.cancer.gov/dtpstandard/dwindex/index.jsp; conditions: reference drugs, ref https://dtp.cancer.gov/dtpstandard/dwindex/index.jsp; cited from earlier work
UO-31 = tested on: UO-31; set-up: method as in https://dtp.cancer.gov/dtpstandard/dwindex/index.jsp; conditions: reference drugs, ref https://dtp.cancer.gov/dtpstandard/dwindex/index.jsp; cited from earlier work
SK-MEL-5 = tested on: SK-MEL-5; set-up: method as in https://dtp.cancer.gov/dtpstandard/dwindex/index.jsp; conditions: reference drugs, ref https://dtp.cancer.gov/dtpstandard/dwindex/index.jsp; cited from earlier work
BT-549 = tested on: BT-549; set-up: method as in https://dtp.cancer.gov/dtpstandard/dwindex/index.jsp; conditions: reference drugs, ref https://dtp.cancer.gov/dtpstandard/dwindex/index.jsp; cited from earlier work
SNB-19 = tested on: SNB-19; set-up: method as in https://dtp.cancer.gov/dtpstandard/dwindex/index.jsp; conditions: reference drugs, ref https://dtp.cancer.gov/dtpstandard/dwindex/index.jsp; cited from earlier work
M14 = tested on: M14; set-up: method as in https://dtp.cancer.gov/dtpstandard/dwindex/index.jsp; conditions: reference drugs, ref https://dtp.cancer.gov/dtpstandard/dwindex/index.jsp; cited from earlier work
MDA-MB-468 = tested on: MDA-MB-468; set-up: method as in https://dtp.cancer.gov/dtpstandard/dwindex/index.jsp; conditions: reference drugs, ref https://dtp.cancer.gov/dtpstandard/dwindex/index.jsp; cited from earlier work
[1] = tested on: prostate cancer tumour cell lines; conditions: cited from earlier work
MDA-MB-231/ATCC = tested on: MDA-MB-231/ATCC; set-up: method as in https://dtp.cancer.gov/dtpstandard/dwindex/index.jsp; conditions: reference drugs, ref https://dtp.cancer.gov/dtpstandard/dwindex/index.jsp; cited from earlier work

COc1cc2ncnc(Nc3ccc(F)c(Cl)c3)c2cc1OCCCN1CCOCC1 [Gefitinib, gefitinib]
GI50 (A549/ATCC): 2510 nM
GI50 (SK-OV-3): 1000 nM
GI50 (CCRF-CEM): 398 nM
GI50 (UO-31): 1580 nM
GI50 (SK-MEL-5): 3.16 µM
GI50 (BT-549): 3.16 µM
GI50 (SNB-19): 3.16 µM
GI50 (M14): 2000 nM
GI50 (MDA-MB-468): 12.6 nM
GI50 ([1]; read-out: GI50 (subpanel average), reference drugs, ref https://dtp.cancer.gov/dtpstandard/dwindex/index.jsp): 3.29 µM
TGI (subpanel average) ([1]; reference drugs, ref https://dtp.cancer.gov/dtpstandard/dwindex/index.jsp): 31.62 µM
GI50 (MDA-MB-231/ATCC): 3.98 µM
